In PubChem BioAssay AID2060896 (Molecular Pharmacology Branch, DTP, NCI, 2025) one finds viability, T/C and IC50 data, which are given here for 13 compounds.

The assay relates to 941728-121-R-J1-PDC complex spheroid viability. In words: Anticancer human tumor 941728-121-R-J1-PDC patient-derived lung adenocarcinoma cell line growth inhibition [RAS]. The following applies: for viability, T/C: stronger effect = lower value. From the text: RAS pathway inhibitors in Combinations in Complex Spheroids
A high-throughput screen of multi-cell type tumor spheroids was designed to identify active combinations of RAS pathway inhibitors and targeted small molecules. Complex spheroids include a stromal component modeled by human endothelial cells (HUVEC) and fibroblasts modeled by human mesenchymal stem cells (MSCs). The concentration ranges selected for each drug and investigational agent were based upon clinically achievable concentrations if the clinical Cmax of the agent was known.
Compounds. The drugs and investigational agents: abemaciclib (NSC768073), cobimetinib (NSC768068), divarasib (GDC6063, NSC841802), docetaxel (NSC628503), GDC-1971 (RLY-1971, NSC841576), gemcitabine (NSC613327), inavolisib (NSC800729), ipatasertib (NSC767898), KB-0742 (NSC834161), MRTX-1133 (NSC836407), osimertinib (NSC779217), RMC-4630 (NSC839698), RMC-6236 (NSC851965), RMC-6291 (NSC852671), Ro-3306 (NSC812927), sapanisertib (NSC764658), SN-38 (NSC673596), staurosporine (NSC755774), SY5609 (NSC837396), and tovorafenib (DAY101, NSC766906), were obtained from the National Cancer Institute (NCI) Developmental Therapeutics Program Chemical Repository. The FDA-approved anticancer drug set is available from the NCI Developmental Therapeutics Program. […] The stock solutions were prepared in dimethyl sulfoxide (DMSO, Sigma-Aldrich, St. Louis, MO, cat. D2650) at 800-fold the tested concentration and stored at -70 degrees C prior to their use. All drugs and investigational agents were tested over a range starting from a high concentration at or near the clinical Cmax and decreasing in half-log increments. If the clinical Cmax for an agent had not been determined, the highest concentration tested was 10 microM.
Cell Culture. All cells were maintained in an incubator at 37 degrees C and 5% CO2 with 95% humidity. The PDC lines were cultured according to standard operating procedures established by the NCI PDMR. All PDCs were thawed and cultured in Matrigel-coated flasks prepared with a working solution of 1X Ham's F-12 nutrient mix, without supplementation (Invitrogen, Waltham, MA, cat. 11765054), 100 U/mL penicillin-streptomycin (Invitrogen, cat. 15140122), and 2.5% Matrigel (Corning Inc., Corning, NY, cat. 354248) for the first three passages. The 362531-283-R-J2-PDC and 782815-120-R-J1-PDC lines were cultured in 6C/Colon 1B media, which includes advanced DMEM/F-12 (Thermo Fisher Scientific, cat. 12634028), 10 mM HEPES (Thermo Fisher Scientific, cat. 15630080), 1X GlutaMAX supplement (Thermo Fisher Scientific, cat. 35050061), 0.1 mg/mL primocin (InvivoGen, San Diego, CA, cat. ant-pm-2), 10% defined fetal bovine serum, heat inactivated (HyClone Laboratories Inc., Logan, UT, cat. SH30070.03HI), 50% L-WRN conditioned media (ATCC, cat. CRL-3276), 1.25 mM N-Acetyl-L-cysteine (Sigma-Aldrich, cat. A9165), 10 mM nicotinamide (Sigma-Aldrich, cat. N0636), 1X B-27 supplement (Thermo Fisher Scientific, cat. 17504044), 1X N-2 supplement (Thermo Fisher Scientific, cat. 17502048), 50 ng/mL human EGF (Thermo Fisher Scientific, cat. PHG0311), and 10 microM Y-27632 dihydrochloride (Tocris Bioscience, cat. 1254). The K12877-001-R-J1-PDC line was cultured in 6I media, which includes all 6C/Colon 1B media plus 10 ng/mL human FGF-10 (PeproTech, cat. 100-26), 1 ng/mL human FGF-2 (PeproTech, cat. 100-18B), 1 µM prostaglandin E2 (Tocris Bioscience, cat. 2296), […] hydrocortisone (Sigma-Aldrich, cat. H4001), and […] bovine insulin (Sigma-Aldrich, cat. I6634). The K86415-001-R-J1-PDC line was cultured in 6D media, which includes all 6C/Colon 1B media components minus the L-WRN conditioned media. The 485176-168-R4-J1-PDC was cultured in PANC media, which includes all 6C/Colon 1B media plus 100 ng/mL human FGF-10 (PeproTech, cat. 100-26), 500 nM SB-431542 (Selleckchem, cat. S1067), and 10 nM gastrin (Tocris Bioscience, cat. 3006). […]

Setting [1] is: compound alone, run of 07/15/2024.
Where [2] appears, read: compound alone, run of 07/09/2024.

Values joined by “and” are separate entries in the source; they are usually repeats but may differ in a detail not shown here. Identical values can stand only once. Bounds are passed on as bounds.
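Further: spheroids exposed to compounds for 7 days before readout.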

In the case of `C#Cc1c(F)ccc2cc(O)cc(-c3ncc4c(N5CC6CCC(C5)N6)nc(OCC56CCCN5CC(F)C6)nc4c3F)c12` (configuration not stated), the viability, T/C is 87.4% [middle of 8 runs] (compound 0.0316 µM); 82.9% [middle of 8 runs] (compound 0.1 µM); 61.2% [middle of 8 runs] (compound 0.316 µM); 41.3% [middle of 8 runs] (compound 1 µM); 32.1% [middle of 8 runs] (compound 3.16 µM); 23.3% [middle of 8 runs] (compound 10 µM). Under setting [1], the IC50 is 603 nM [middle of 8 runs].
On to `C=CC(=O)N1CCN(c2nc(OCC3CCCN3C)nc3c(F)c(-c4nc(N)cc(C)c4C(F)(F)F)c(Cl)cc23)C(C)C1` (configuration not stated), for which the viability, T/C runs as follows: (compound 0.00316 µM) 21.7% [middle of 12 runs]; (compound 0.01 µM) 19.7% [middle of 12 runs]; (compound 0.0316 µM) 19.9% [middle of 12 runs]; (compound 0.1 µM) 19.5% [middle of 12 runs]; (compound 0.316 µM) 22.8% [middle of 12 runs]; (compound 1 µM) 21% [middle of 12 runs]. Besides, the IC50 under setting [1] was less than 0.00316 µM and the IC50 (curve of compound) is less than 0.00316 µM.
Take `C=CC(=O)Nc1cc(Nc2nccc(-c3cn(C)c4ccccc34)n2)c(OC)cc1N(C)CCN(C)C`: the viability, T/C is, setting by setting: (compound 0.00316 µM) 98.4% [middle of 4 runs]; (compound 0.01 µM) 82.8% [middle of 4 runs]; (compound 0.0316 µM) 68.2% [middle of 4 runs]; (compound 0.1 µM) 67.7% [middle of 4 runs]; (compound 0.316 µM) 55.6% [middle of 4 runs]; (compound 1 µM) 47.3% [middle of 4 runs].
On to `CC(C)NCC(C(=O)N1CCN(c2ncnc3c2C(C)CC3O)CC1)c1ccc(Cl)cc1` (configuration not stated), for which the viability, T/C by setting is: (compound 0.0316 µM) 93.8% [middle of 4 runs]; (compound 0.1 µM) 90.7% [middle of 4 runs]; (compound 0.316 µM) 74.2% [middle of 4 runs]; (compound 3.16 µM) 54.6% [middle of 4 runs]; (compound 10 µM) 42.7% [middle of 4 runs]. Also, for the setting “curve of compound”, the IC50 is 0.844 µM and 5.47 µM and 2.64 µM.
For the compound `CC(C)n1nc(-c2ccc3oc(N)nc3c2)c2c(N)ncnc21`, the viability, T/C runs as follows: (compound 0.000316 µM) 102% [middle of 4 runs]; (compound 0.001 µM) 86.9% [middle of 4 runs]; (compound 0.00316 µM) 60.5% [middle of 4 runs]; (compound 0.01 µM) 55.1% [middle of 4 runs]; (compound 0.0316 µM) 40.9% [middle of 4 runs]; (compound 0.1 µM) 34.5% [middle of 4 runs]. The IC50 (curve of compound) is 11.4 nM [middle of 4 runs].
With `CC(Nc1ccc2c(c1)OCCn1cc(N3C(=O)OCC3C(F)F)nc1-2)C(N)=O` (configuration not stated), the viability, T/C runs as follows: (compound 0.0316 µM) 81% [middle of 4 runs]; (compound 0.1 µM) 53.6% [middle of 4 runs]; (compound 0.316 µM) 40.8% [middle of 4 runs]; (compound 1 µM) 42.5% [middle of 4 runs]; (compound 3.16 µM) 37.6% [middle of 4 runs]; (compound 10 µM) 34.7% [middle of 4 runs]. For the setting “curve of compound”, the IC50 was 144 nM [middle of 4 runs].
Consider `CC1(C)CCC(Nc2ncc(C(F)(F)F)c(-c3c[nH]c4c(P(C)(C)=O)c(C#N)ccc34)n2)CN1` (configuration not stated), for which the viability, T/C was 83.9% [middle of 4 runs] (compound 0.000949 µM); 79.2% [middle of 4 runs] (compound 0.003 µM); 62.7% [middle of 4 runs] (compound 0.00949 µM); 63.8% [middle of 4 runs] (compound 0.03 µM); 65% [middle of 4 runs] (compound 0.0949 µM); 53.4% [middle of 4 runs] (compound 0.3 µM). Also, for the setting “curve of compound”, the IC50 was more than 0.3 µM.
With `CCN1CCN(Cc2ccc(Nc3ncc(F)c(-c4cc(F)c5nc(C)n(C(C)C)c5c4)n3)nc2)CC1`, the viability, T/C is 93.9% [middle of 4 runs] (compound 0.00316 µM); 80.5% [middle of 4 runs] (compound 0.01 µM); 65.2% [middle of 4 runs] (compound 0.0316 µM); 57.7% [middle of 4 runs] (compound 0.1 µM); 70.8% [middle of 4 runs] (compound 0.316 µM); 72.4% [middle of 4 runs] (compound 1 µM). Also, the IC50 (curve of compound) is more than 1 µM.
As to `CCc1c2c(nc3ccc(O)cc13)-c1cc3c(c(=O)n1C2)COC(=O)[C@]3(O)CC`, the viability, T/C runs as follows: (compound 0.000949 µM) 85.2% [middle of 4 runs]; (compound 0.003 µM) 73.3% [middle of 4 runs]; (compound 0.00949 µM) 62.9% [middle of 4 runs]; (compound 0.03 µM) 67.4% [middle of 4 runs]; (compound 0.0949 µM) 58.9% [middle of 4 runs]; (compound 0.3 µM) 50% [middle of 4 runs]. Moreover, where the note is “curve of compound”, the IC50 is 0.0442 µM and > 0.3 µM and 0.089 µM.
As for `CCn1c(-c2cc(N3CCN(C)CC3)cnc2C(C)OC)c2c3cc(ccc31)-c1csc(n1)CC(NC(=O)C1CC1C)C(=O)N1CCCC(N1)C(=O)OCC(C)(C)C2` (configuration not stated), the viability, T/C reads like this: (compound 0.000949 µM) 28.7% [middle of 8 runs]; (compound 0.003 µM) 23.8% [middle of 8 runs]; (compound 0.00949 µM) 17.1% [middle of 8 runs]; (compound 0.03 µM) 13.9% [middle of 8 runs]; (compound 0.0949 µM) 14.7% [middle of 8 runs]; (compound 0.3 µM) 13.4% [middle of 8 runs]. Besides, the half-inhibitory concentration (IC50) under setting [2] was less than 0.000949 µM.
For `CCn1c(-c2cccnc2C(C)OC)c2c3cc(ccc31)N1CCOC(CC(NC(=O)C(C(C)C)N(C)C(=O)C3(F)CCN(C(=O)C#CC(C)(C)N(C)C)CC3)C(=O)N3CCCC(N3)C(=O)OCC(C)(C)C2)C1` (configuration not stated), the viability, T/C (compound 0.000949 µM) is 22.6% [middle of 8 runs]; the viability, T/C (compound 0.00949 µM) is 24.6% [middle of 8 runs]; the viability, T/C (compound 0.03 µM) was 24.1% [middle of 8 runs]; the viability, T/C (compound 0.0949 µM) is 24.9% [middle of 8 runs]; the viability, T/C (compound 0.3 µM) was 24.9% [middle of 8 runs]. For the same compound, the IC50 under setting [2] was < 0.000949 µM and 0.00459 µM.
Turning to `C[C@@H](NC(=O)c1ncnc(N)c1Cl)c1ncc(C(=O)Nc2cc(C(F)(F)F)c(Cl)cn2)s1`, the viability, T/C is, setting by setting: (compound 0.0316 µM) 114% [middle of 4 runs]; (compound 0.1 µM) 112% and 129% and 115% (2×); (compound 0.316 µM) 120% [middle of 4 runs]; (compound 1 µM) 112% [middle of 4 runs]; (compound 3.16 µM) 83.2% [middle of 4 runs]; (compound 10 µM) 45.7% [middle of 4 runs]. The IC50 (curve of compound) is 8.88 µM [middle of 4 runs].
With `O=C(c1ccc(F)c(F)c1Nc1ccc(I)cc1F)N1CC(O)([C@@H]2CCCCN2)C1`, the viability, T/C was 80.3% [middle of 4 runs] (compound 0.00316 µM); 69% [middle of 4 runs] (compound 0.01 µM); 42.2% [middle of 4 runs] (compound 0.1 µM); 32.5% [middle of 4 runs] (compound 0.316 µM); 27.8% [middle of 4 runs] (compound 1 µM).

For orientation: viability, T/C means the result in the treated group divided by that in the control group, in per cent. As a reminder, the IC50 is the concentration that gives 50% inhibition.
